In US20110112164A1, “NOVEL POLYMORPHS AND PROCESSES FOR THEIR PREPARATION” (Generics (UK) Limited, priority 2008, published 2011):
Like-named read-outs stand apart in the source and are kept apart here.

Assays:
[1] = Stability (thermodynamic / polymorphic) of crystalline forms of sunitinib malate; format: physicochemical; details: crystalline solid form
[2] = Hygroscopicity of crystalline forms of sunitinib malate; format: physicochemical; details: crystalline solid form
[3] = prior art form of WO 03/016305; cited from earlier work
[4] = prior art form of WO 03/016305; cited from earlier work; remark: listed apart in the source

Structure (SMILES)	stability [1]	hygroscopicity [2]	hygroscopicity [3]	polymorphic conversion [4]	thermodynamic stability [4]
CCN(CC)CCNC(=O)c1c(C)[nH]c(/C=C2\C(=O)Nc3ccc(F)cc32)c1C.O=C(O)CC(O)C(=O)O [form III, (Z)—N-[2-(diethylamino)ethyl]-5-(5-fluoro-2-oxo-2,3-dihydro-1H-indole-3-ylidenemethyl)-2,4-dimethyl-1H-pyrrole-3-carboxamide 2(S)-hydroxybutanedioic acid]	stable	non-hygroscopic	–	–	–
CCN(CC)CCNC(=O)c1c(C)[nH]c(/C=C2\C(=O)Nc3ccc(F)cc32)c1C.O=C(O)CC(O)C(=O)O [Form II, (Z)—N-[2-(diethylamino)ethyl]-5-(5-fluoro-2-oxo-2,3-dihydro-1H-indole-3-ylidenemethyl)-2,4-dimethyl-1H-pyrrole-3-carboxamide 2(S)-hydroxybutanedioic acid]	–	–	hygroscopic	readily convert to form I	thermodynamically unstable
